From ChEMBL document CHEMBL1148509, “Design and semisynthesis of novel fredericamycin A derivatives with an improved antitumor profile” (Bioorg Med Chem Lett, 2006)

Legend:
[1] = system: Panel (12 tumour cell lines); assay: Cytotoxicity against panel of 12 cell lines (LCL H460, MACL MCF7, LXFL 529L, LXFA 629L, MEXF 462NL, MEXF 514L, MAXF 401NL, RXF 944L, RXF 486L, UXF 1138L, PR PC3M, PRCL 22RV1); type: functional; conditions: Homo sapiens
[2] = system: Panel (10 carcinoma cell lines); assay: Inhibition of cell viability of panel of 10 cell lines (LCL H460, MACL MCF7, LXFL 529L, LXFA 629L, MEXF 462NL, MEXF 514L, MAXF 401NL, RXF 944L, RXF 486L, UXF 1138L) at 1 ug/mL; type: functional; conditions: Homo sapiens
[3] = system: UXF1138; assay: Antitumor activity against human UXF1138 cell line xenografted in nude mouse at 0.15 mg/kg/day, ip after 7 days; conditions: route intraperitoneal
[4] = system: Mus musculus; assay: Decrease in body weight of nude mouse xenografted with human UXF1138 at 0.15 mg/kg/day, ip after 7 days; type: functional; design: scale not given: the % may be the effect or the level left; conditions: route intraperitoneal
[5] = system: Mus musculus; assay: Toxicity in nude mouse xenografted with human UXF1138 at 0.3 mg/kg/day; type: organism-based; conditions: in vivo
[6] = system: Mus musculus; assay: Toxicity in nude mouse xenografted with human UXF1138 at 1 mg/kg/day; type: organism-based; conditions: in vivo
[7] = system: Mus musculus; assay: Toxicity in nude mouse xenografted with human UXF1138 at 3 mg/kg/day; type: organism-based; conditions: in vivo

SMILES: COC1=CC(=O)c2c(O)c3c(c(O)c2C1=O)C(=O)[C@]1(CCc2c1c(O)c1c(O)nc(/C=N/OCCN4CCOCC4)cc1c2Br)C3=O
- IC70 [1]: 101 nM
- inhibition at 1 µg/mL [2]: 88%

SMILES: COC1=CC(=O)c2c(O)c3c(c(O)c2C1=O)C(=O)[C@]1(CCc2c1c(O)c1c(O)nc(C=O)cc1c2Cl)C3=O
- inhibition at 1 µg/mL [2]: 25%

SMILES: C/C=C/C=C/c1cc2c(Cl)c3c(c(O)c2c(O)n1)[C@@]1(CC3)C(=O)c2c(O)c3c(c(O)c2C1=O)C(=O)C(OC)=CC3=O
- IC70 [1]: 14 nM
- inhibition at 1 µg/mL [2]: 91%

SMILES: COC1=CC(=O)c2c(O)c3c(c(O)c2C1=O)C(=O)[C@]1(CCc2c1c(O)c1c(O)nc(C=O)cc1c2Br)C3=O
- inhibition at 1 µg/mL [2]: 42%

SMILES: C/C=C/C=C/c1cc2cc3c(c(O)c2c(O)n1)[C@@]1(CC3)C(=O)C2=C(C(=O)c3c(O)c(OCCN(C)C)cc(O)c3C2=O)C1=O
- IC70 [1]: 1020 nM
- inhibition at 1 µg/mL [2]: 94%

SMILES: COC1=CC(=O)c2c(O)c3c(c(O)c2C1=O)C(=O)[C@]1(CCc2cc4cc(C(O)C(O)C(O)C(C)O)nc(O)c4c(O)c21)C3=O (stereo partly drawn)
- IC70 [1]: 186 nM
- inhibition at 1 µg/mL [2]: 85%

SMILES: COC1=CC(=O)c2c(O)c3c(c(O)c2C1=O)C(=O)[C@]1(CCc2c1c(O)c1c(O)nc(/C=N/N4CCN(C)CC4)cc1c2Br)C3=O
- IC70 [1]: 658 nM
- inhibition at 1 µg/mL [2]: 73%

SMILES: COC1=CC(=O)c2c(O)c3c(c(O)c2C1=O)C(=O)[C@]1(CCc2c1c(O)c1c(O)nc(/C=C/c4csc(NC(C)=O)n4)cc1c2Br)C3=O
- IC70 [1]: 512 nM
- inhibition at 1 µg/mL [2]: 83%

SMILES: COC1=CC(=O)c2c(O)c3c(c(O)c2C1=O)C(=O)[C@]1(CCc2c1c(O)c1c(O)nc(/C=N/OC(C)C)cc1c2Br)C3=O
- IC70 [1]: 74 nM
- inhibition at 1 µg/mL [2]: 91%

SMILES: COC1=CC(=O)c2c(O)c3c(c(O)c2C1=O)C(=O)[C@]1(CCc2c1c(O)c1c(O)nc(/C=C/c4csc(C)n4)cc1c2Br)C3=O
- IC70 [1]: 124 nM
- inhibition at 1 µg/mL [2]: 85%

SMILES: C/C=C/C=C/c1cc2c(Br)c3c(c(O)c2c(O)n1)[C@@]1(CC3)C(=O)C2=C(C(=O)c3c(O)c(NC4CC4)cc(O)c3C2=O)C1=O
- IC70 [1]: 96 nM
- inhibition at 1 µg/mL [2]: 97%

SMILES: C/C=C/C=C/c1cc2c(Br)c3c(c(O)c2c(O)n1)[C@@]1(CC3)C(=O)C2=C(C(=O)c3c(O)c(NCCCC)cc(O)c3C2=O)C1=O
- IC70 [1]: 302 nM
- inhibition at 1 µg/mL [2]: 94%

SMILES: C/C=C/C=C/c1cc2c(Br)c3c(c(O)c2c(O)n1)[C@@]1(CC3)C(=O)c2c(O)c3c(c(O)c2C1=O)C(=O)C(OCC)=CC3=O
- IC70 [1]: 160 nM
- inhibition at 1 µg/mL [2]: 97%

SMILES: C/C=C/C=C/c1cc2cc3c(c(O)c2c(O)n1)[C@@]1(CC3)C(=O)C2=C(C(=O)c3c(O)c(N(C)C)cc(O)c3C2=O)C1=O
- IC70 [1]: 306 nM
- inhibition at 1 µg/mL [2]: 96%

SMILES: COC1=CC(=O)c2c(O)c3c(c(O)c2C1=O)C(=O)[C@]1(CCc2c1c(O)c1c(O)nc(/C=N/OCc4ccccc4)cc1c2Br)C3=O
- IC70 [1]: 50 nM
- inhibition at 1 µg/mL [2]: 91%

SMILES: COC1=CC(=O)c2c(O)c3c(c(O)c2C1=O)C(=O)[C@]1(CCc2cc4cc(/C=C/C(C)=O)nc(O)c4c(O)c21)C3=O
- inhibition at 1 µg/mL [2]: 59%

SMILES: C/C=C/C=C/c1cc2cc3c(c(O)c2c(O)n1)[C@@]1(CC3)C(=O)C2=C(C(=O)c3c(O)c(N4CCOCC4)cc(O)c3C2=O)C1=O
- IC70 [1]: 77 nM
- inhibition at 1 µg/mL [2]: 98%

SMILES: C/C=C/C=C/c1cc2c(I)c3c(c(O)c2c(O)n1)[C@@]1(CC3)C(=O)c2c(O)c3c(c(O)c2C1=O)C(=O)C(OC)=CC3=O
- Activity [3]: 51%
- IC70 [1]: 11 nM
- inhibition at 1 µg/mL [2]: 93%
- Activity [4]: -3.1%
- Activity [5]: Non-toxic
- Activity [6]: Toxic
- Activity [7]: Toxic

SMILES: COC1=CC(=O)c2c(O)c3c(c(O)c2C1=O)C(=O)[C@]1(CCc2c1c(O)c1c(O)nc(/C=C/c4csc(N)n4)cc1c2Br)C3=O
- IC70 [1]: 612 nM
- inhibition at 1 µg/mL [2]: 77%

SMILES: C/C=C/C=C/c1cc2c(Br)c3c(c(O)c2c(O)n1)[C@@]1(CC3)C(=O)c2c(O)c3c(c(O)c2C1=O)C(=O)C(OC)=CC3=O
- IC70 [1]: 8.1 nM
- inhibition at 1 µg/mL [2]: 92%

SMILES: C/C=C/C=C/c1cc2c(F)c3c(c(O)c2c(O)n1)[C@@]1(CC3)C(=O)c2c(O)c3c(c(O)c2C1=O)C(=O)C(OC)=CC3=O
- IC70 [1]: 20 nM
- inhibition at 1 µg/mL [2]: 91%

SMILES: C/C=C/C=C/c1cc2cc3c(c(O)c2c(O)n1)[C@@]1(CC3)C(=O)C2=C(C(=O)c3c(O)c(NC(C)C)cc(O)c3C2=O)C1=O
- IC70 [1]: 634 nM
- inhibition at 1 µg/mL [2]: 91%

SMILES: COC1=CC(=O)c2c(O)c3c(c(O)c2C1=O)C(=O)[C@]1(CCc2cc4cc(C=O)nc(O)c4c(O)c21)C3=O
- inhibition at 1 µg/mL [2]: 31%

SMILES: CC[C@@]1(O)C(=O)OCc2c1cc1n(c2=O)Cc2cc3ccccc3nc2-1 [CAMPTOTHECIN]
- IC70 [1]: 8.6 nM

SMILES: COc1cccc2c1C(=O)c1c(O)c3c(c(O)c1C2=O)C[C@@](O)(C(=O)CO)C[C@@H]3O[C@H]1C[C@H](N)[C@H](O)[C@H](C)O1 [DOXORUBICIN]
- IC70 [1]: 39 nM
- inhibition at 1 µg/mL [2]: 91%

SMILES: C/C=C/C=C/c1cc2cc3c(c(O)c2c(=O)[nH]1)[C@@]1(CC3)C(=O)c2c(O)c3c(c(O)c2C1=O)C(=O)C(OC)=CC3=O [FDM A]
- IC70 [1]: 517 nM
- inhibition at 1 µg/mL [2]: 82%

SMILES: CC(=O)O[C@H]1C(=O)[C@@]2(C)[C@H]([C@H](OC(=O)c3ccccc3)[C@]3(O)C[C@H](OC(=O)[C@H](O)[C@@H](NC(=O)c4ccccc4)c4ccccc4)C(C)=C1C3(C)C)[C@]1(OC(C)=O)CO[C@@H]1C[C@@H]2O [PACLITAXEL]
- IC70 [1]: 0.7 nM
